The target of assay [1] is T1, Phosphatidylinositol 4,5-bisphosphate 3-kinase catalytic subunit delta isoform (Homo sapiens, UniProt O00329).
T1 sequence (O00329 whole entry): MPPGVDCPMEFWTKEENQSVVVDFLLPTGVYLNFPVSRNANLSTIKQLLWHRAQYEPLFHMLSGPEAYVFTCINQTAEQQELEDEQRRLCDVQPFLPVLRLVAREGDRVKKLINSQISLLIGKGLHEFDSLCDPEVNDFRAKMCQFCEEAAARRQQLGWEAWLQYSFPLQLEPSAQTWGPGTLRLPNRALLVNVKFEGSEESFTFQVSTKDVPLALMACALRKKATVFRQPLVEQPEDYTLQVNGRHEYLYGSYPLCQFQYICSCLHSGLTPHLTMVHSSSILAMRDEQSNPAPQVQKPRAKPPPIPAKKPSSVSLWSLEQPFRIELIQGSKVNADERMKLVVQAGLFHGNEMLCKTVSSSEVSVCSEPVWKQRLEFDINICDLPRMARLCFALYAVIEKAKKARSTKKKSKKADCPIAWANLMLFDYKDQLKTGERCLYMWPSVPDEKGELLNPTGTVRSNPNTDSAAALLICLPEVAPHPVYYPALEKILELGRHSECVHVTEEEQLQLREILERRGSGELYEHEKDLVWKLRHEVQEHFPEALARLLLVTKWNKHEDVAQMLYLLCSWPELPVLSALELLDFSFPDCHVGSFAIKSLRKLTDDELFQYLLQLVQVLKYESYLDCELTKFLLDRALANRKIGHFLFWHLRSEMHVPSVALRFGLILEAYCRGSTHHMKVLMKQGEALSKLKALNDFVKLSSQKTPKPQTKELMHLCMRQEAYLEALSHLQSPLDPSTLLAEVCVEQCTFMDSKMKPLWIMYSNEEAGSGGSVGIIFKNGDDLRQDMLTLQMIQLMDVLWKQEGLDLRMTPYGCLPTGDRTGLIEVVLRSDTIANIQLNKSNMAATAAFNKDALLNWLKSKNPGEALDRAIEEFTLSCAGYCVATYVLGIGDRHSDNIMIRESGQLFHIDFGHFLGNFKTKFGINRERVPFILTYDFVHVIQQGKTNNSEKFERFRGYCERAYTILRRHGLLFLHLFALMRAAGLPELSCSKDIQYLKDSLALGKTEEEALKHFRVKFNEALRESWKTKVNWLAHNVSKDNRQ
The assay can be described thus: Inhibition of PI3Kdelta (unknown origin) by ADP Glo luminescent assay. Background: In ADP-Glo the light output rises with the ADP produced.

In assay [2] the test system is EOL1. The assay can be described thus: Antiproliferative activity against human EOL1 cells assessed as inhibition of cell growth. Format: functional, cell-based.
Assay [3] concerns KG-1. The assay can be described thus: Antiproliferative activity against human KG-1 cells assessed as inhibition of cell growth. Format: functional, cell-based.
The nature of assay [4]: Antiproliferative activity against human MOLM16 cells assessed as inhibition of cell growth. Format: functional, cell-based, MOLM-16.
For assay [5], the system named is MV4-11. Description: Antiproliferative activity against human MV4-11 cells assessed as inhibition of cell growth. Format: functional, cell-based.
Assay [6] concerns HL-60. The assay can be described thus: Antiproliferative activity against human HL-60 cells assessed as inhibition of cell growth. Format: functional, cell-based.
In assay [7] the test system is MV4-11. Description: Induction of apoptosis in human MV4-11 cells assessed as late apoptotic cells at 1 uM incubated for 48 hrs by Annexin V/PI staining based flow cytometric analysis (reference value: 2.82%). The format is functional. (In general: In flow cytometry, cells or beads pass a laser one at a time.)
For assay [8], the system named is MV4-11. Description: Induction of apoptosis in human MV4-11 cells assessed as necrotic cells at 10 uM incubated for 48 hrs by Annexin V/PI staining based flow cytometric analysis (reference value: 0.060%). The format is functional.
Assay [9] concerns MV4-11. The assay can be described thus: Induction of apoptosis in human MV4-11 cells assessed as total apoptotic cells at 1 to 10 uM incubated for 48 hrs by Annexin V/PI staining based flow cytometric analysis (reference value: 4.39%). The format is functional. The following applies: dose 1-10 µM.
In assay [10] the target is Phosphatidylinositol 4,5-bisphosphate 3-kinase catalytic subunit gamma isoform (Homo sapiens, UniProt P48736). The assay can be described thus: Inhibition of PI3Kgamma (unknown origin).
Sequence of Phosphatidylinositol 4,5-bisphosphate 3-kinase catalytic subunit gamma isoform (P48736 whole entry, canonical isoform): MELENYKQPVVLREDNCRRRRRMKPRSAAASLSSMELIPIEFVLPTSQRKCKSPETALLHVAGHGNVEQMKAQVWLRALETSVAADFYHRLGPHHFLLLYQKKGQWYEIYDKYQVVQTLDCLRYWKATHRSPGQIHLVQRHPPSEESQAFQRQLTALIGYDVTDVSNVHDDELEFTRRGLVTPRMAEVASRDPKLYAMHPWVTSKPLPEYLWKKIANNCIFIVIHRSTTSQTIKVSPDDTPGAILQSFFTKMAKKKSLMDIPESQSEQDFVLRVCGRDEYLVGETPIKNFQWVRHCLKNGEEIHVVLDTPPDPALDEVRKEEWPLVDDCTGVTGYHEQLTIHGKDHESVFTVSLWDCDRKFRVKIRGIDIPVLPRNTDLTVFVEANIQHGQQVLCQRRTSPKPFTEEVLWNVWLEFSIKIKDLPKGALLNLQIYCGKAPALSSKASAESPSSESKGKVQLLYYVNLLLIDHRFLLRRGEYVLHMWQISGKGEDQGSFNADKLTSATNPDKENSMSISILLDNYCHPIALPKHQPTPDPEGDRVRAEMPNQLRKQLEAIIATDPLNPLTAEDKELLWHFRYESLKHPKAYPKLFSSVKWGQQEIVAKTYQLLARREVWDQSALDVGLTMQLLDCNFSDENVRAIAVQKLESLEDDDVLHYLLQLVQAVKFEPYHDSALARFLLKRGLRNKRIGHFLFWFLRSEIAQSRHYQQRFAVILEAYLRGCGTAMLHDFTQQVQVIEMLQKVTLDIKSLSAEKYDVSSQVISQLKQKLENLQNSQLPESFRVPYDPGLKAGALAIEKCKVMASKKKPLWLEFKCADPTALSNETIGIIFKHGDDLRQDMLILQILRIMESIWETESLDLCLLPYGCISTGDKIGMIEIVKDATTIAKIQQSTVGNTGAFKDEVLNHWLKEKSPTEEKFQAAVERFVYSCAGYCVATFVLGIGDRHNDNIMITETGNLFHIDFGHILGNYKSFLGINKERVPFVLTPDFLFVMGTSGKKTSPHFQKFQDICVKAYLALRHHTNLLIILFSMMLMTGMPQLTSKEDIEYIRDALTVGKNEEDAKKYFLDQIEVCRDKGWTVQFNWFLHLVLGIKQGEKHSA
Assay [11] deals with MV4-11. Description: Induction of apoptosis in human MV4-11 cells assessed as viable cells at 5 uM incubated for 48 hrs by Annexin V/PI staining based flow cytometric analysis (reference value: […]). Format: functional. The following applies: read-out: Activity.
For assay [12], the system named is MV4-11. The assay can be described thus: Induction of apoptosis in human MV4-11 cells assessed as necrotic cells at 5 uM incubated for 48 hrs by Annexin V/PI staining based flow cytometric analysis (reference value: 0.060%). Format: functional.
Assay [13] addresses Phosphatidylinositol 4,5-bisphosphate 3-kinase catalytic subunit beta isoform (Homo sapiens, UniProt P42338). Description: Inhibition of PI3Kbeta (unknown origin).
Assay [14] is filed under the species Homo sapiens. The assay can be described thus: Selectivity index, ratio of IC50 for inhibition of PI3Kalpha (unknown origin) to IC50 for inhibition of PI3Kdelta (unknown origin) by ADP Glo luminescent assay.
Assay [15] relates to MV4-11. Description: Induction of apoptosis in human MV4-11 cells assessed as necrotic cells at 3 uM incubated for 48 hrs by Annexin V/PI staining based flow cytometric analysis (reference value: 0.060%). The format is functional.
Assay [16] deals with MV4-11. The assay can be described thus: Cell cycle arrest in human MV4-11 cells assessed as accumulation of cells at G2/M phase incubated for 24 hrs by flow cytometric analysis. Format: functional, cell-based. The following applies: dose 1-10 µM.
Assay [17] relates to MV4-11. The assay can be described thus: Induction of apoptosis in human MV4-11 cells assessed as late apoptotic cells at 10 uM incubated for 48 hrs by Annexin V/PI staining based flow cytometric analysis (reference value: 2.82%). The format is functional.
The species entered for assay [18] is Homo sapiens. Description: Selectivity index, ratio of IC50 for inhibition of PI3Kbeta (unknown origin) to IC50 for inhibition of PI3Kdelta (unknown origin) by ADP Glo luminescent assay.
Assay [19] has as its target Serine/threonine-protein kinase AKT (Homo sapiens) (UniProt P31751+Q9Y243+P31749). The assay can be described thus: Inhibition of AKT phosphorylation in human MV4-11 cells incubated for 4 hrs by Western blot analysis. Format: cell-based. The following applies: dose 1-10 µM. Background: Immunoblotting shows a protein as a band on a membrane.
The subject of assay [20] is MV4-11. Description: Induction of apoptosis in human MV4-11 cells assessed as necrotic cells at 1 uM incubated for 48 hrs by Annexin V/PI staining based flow cytometric analysis (reference value: 0.060%). Format: functional.
Assay [21] has as its system MV4-11. Description: Induction of apoptosis in human MV4-11 cells assessed as late apoptotic cells at 5 uM incubated for 48 hrs by Annexin V/PI staining based flow cytometric analysis (reference value: 2.82%). The format is functional.
In assay [22] the test system is MV4-11. The assay can be described thus: Induction of apoptosis in human MV4-11 cells assessed as late apoptotic cells at 3 uM incubated for 48 hrs by Annexin V/PI staining based flow cytometric analysis (reference value: 2.82%). Format: functional.
The species named for assay [23] is Homo sapiens. Description: Selectivity index, ratio of IC50 for inhibition of PI3Kgamma (unknown origin) to IC50 for inhibition of PI3Kdelta (unknown origin) by ADP Glo luminescent assay.
For assay [24], the system named is MV4-11. The assay can be described thus: Induction of apoptosis in human MV4-11 cells assessed as early apoptotic cells at 5 uM incubated for 48 hrs by Annexin V/PI staining based flow cytometric analysis (reference value: 1.57%). Format: functional.
The test system of assay [25] is MV4-11. The assay can be described thus: Induction of apoptosis in human MV4-11 cells assessed as early apoptotic cells at 10 uM incubated for 48 hrs by Annexin V/PI staining based flow cytometric analysis (reference value: 1.57%). The format is functional.
The subject of assay [26] is MV4-11. Description: Induction of apoptosis in human MV4-11 cells assessed as viable cells at 1 uM incubated for 48 hrs by Annexin V/PI staining based flow cytometric analysis (reference value: […]). The format is functional. The following applies: read-out: Activity.
The test system of assay [27] is MV4-11. Description: Induction of apoptosis in human MV4-11 cells assessed as early apoptotic cells at 1 uM incubated for 48 hrs by Annexin V/PI staining based flow cytometric analysis (reference value: 1.57%). The format is functional.
Assay [28] has as its target Phosphatidylinositol 4,5-bisphosphate 3-kinase catalytic subunit alpha isoform (Homo sapiens, UniProt P42336). The assay can be described thus: Inhibition of PI3Kalpha (unknown origin).
The test system of assay [29] is MV4-11. Description: Induction of apoptosis in human MV4-11 cells assessed as viable cells at 3 uM incubated for 48 hrs by Annexin V/PI staining based flow cytometric analysis (reference value: […]). Format: functional. The settings on record: read-out: Activity.
For assay [30], the system named is MV4-11. The assay can be described thus: Induction of apoptosis in human MV4-11 cells assessed as early apoptotic cells at 3 uM incubated for 48 hrs by Annexin V/PI staining based flow cytometric analysis (reference value: 1.57%). The format is functional.
The test system of assay [31] is MV4-11. Description: Induction of apoptosis in human MV4-11 cells assessed as viable cells at 10 uM incubated for 48 hrs by Annexin V/PI staining based flow cytometric analysis (reference value: […]). The following applies: read-out: Activity. Format: functional.

Here are results for 25 molecules from ChEMBL document CHEMBL5241132, “Design, synthesis and in vitro biological evaluation of 2-aminopyridine derivatives as novel PI3Kδ inhibitors for hematological cancer” (Bioorg Med Chem Lett, 2023).

The term IC50 denotes the concentration that gives 50% inhibition.

Sequence of Phosphatidylinositol 4,5-bisphosphate 3-kinase catalytic subunit beta isoform (P42338 whole entry, canonical isoform): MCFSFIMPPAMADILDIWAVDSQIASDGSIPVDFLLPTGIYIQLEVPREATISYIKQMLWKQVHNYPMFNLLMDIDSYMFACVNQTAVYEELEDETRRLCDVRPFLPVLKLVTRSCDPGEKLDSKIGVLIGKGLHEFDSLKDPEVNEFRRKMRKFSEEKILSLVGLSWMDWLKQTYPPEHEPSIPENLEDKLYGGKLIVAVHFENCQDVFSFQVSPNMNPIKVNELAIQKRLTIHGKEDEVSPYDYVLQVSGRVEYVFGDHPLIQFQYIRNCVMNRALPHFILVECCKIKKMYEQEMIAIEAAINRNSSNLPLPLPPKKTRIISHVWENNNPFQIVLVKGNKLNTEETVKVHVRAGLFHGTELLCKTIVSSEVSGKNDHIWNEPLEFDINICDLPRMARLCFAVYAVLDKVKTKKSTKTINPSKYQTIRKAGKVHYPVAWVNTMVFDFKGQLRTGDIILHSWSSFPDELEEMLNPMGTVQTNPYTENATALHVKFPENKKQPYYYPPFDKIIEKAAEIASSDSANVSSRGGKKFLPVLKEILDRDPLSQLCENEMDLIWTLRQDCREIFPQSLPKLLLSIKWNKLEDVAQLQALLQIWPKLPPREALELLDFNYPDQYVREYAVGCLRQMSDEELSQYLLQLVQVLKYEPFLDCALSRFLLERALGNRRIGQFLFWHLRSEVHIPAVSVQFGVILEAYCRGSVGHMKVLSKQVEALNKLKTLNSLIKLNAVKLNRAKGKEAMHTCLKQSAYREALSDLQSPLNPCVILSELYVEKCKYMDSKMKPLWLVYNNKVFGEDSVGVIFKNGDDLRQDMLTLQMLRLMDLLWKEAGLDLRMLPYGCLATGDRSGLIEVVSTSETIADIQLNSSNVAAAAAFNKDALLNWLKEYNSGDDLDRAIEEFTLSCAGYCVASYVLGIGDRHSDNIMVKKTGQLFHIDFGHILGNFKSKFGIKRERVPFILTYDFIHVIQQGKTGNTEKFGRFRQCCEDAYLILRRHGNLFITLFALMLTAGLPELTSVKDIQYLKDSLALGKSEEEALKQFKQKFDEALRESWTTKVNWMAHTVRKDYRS
Sequence of Phosphatidylinositol 4,5-bisphosphate 3-kinase catalytic subunit alpha isoform (P42336 whole entry, canonical isoform): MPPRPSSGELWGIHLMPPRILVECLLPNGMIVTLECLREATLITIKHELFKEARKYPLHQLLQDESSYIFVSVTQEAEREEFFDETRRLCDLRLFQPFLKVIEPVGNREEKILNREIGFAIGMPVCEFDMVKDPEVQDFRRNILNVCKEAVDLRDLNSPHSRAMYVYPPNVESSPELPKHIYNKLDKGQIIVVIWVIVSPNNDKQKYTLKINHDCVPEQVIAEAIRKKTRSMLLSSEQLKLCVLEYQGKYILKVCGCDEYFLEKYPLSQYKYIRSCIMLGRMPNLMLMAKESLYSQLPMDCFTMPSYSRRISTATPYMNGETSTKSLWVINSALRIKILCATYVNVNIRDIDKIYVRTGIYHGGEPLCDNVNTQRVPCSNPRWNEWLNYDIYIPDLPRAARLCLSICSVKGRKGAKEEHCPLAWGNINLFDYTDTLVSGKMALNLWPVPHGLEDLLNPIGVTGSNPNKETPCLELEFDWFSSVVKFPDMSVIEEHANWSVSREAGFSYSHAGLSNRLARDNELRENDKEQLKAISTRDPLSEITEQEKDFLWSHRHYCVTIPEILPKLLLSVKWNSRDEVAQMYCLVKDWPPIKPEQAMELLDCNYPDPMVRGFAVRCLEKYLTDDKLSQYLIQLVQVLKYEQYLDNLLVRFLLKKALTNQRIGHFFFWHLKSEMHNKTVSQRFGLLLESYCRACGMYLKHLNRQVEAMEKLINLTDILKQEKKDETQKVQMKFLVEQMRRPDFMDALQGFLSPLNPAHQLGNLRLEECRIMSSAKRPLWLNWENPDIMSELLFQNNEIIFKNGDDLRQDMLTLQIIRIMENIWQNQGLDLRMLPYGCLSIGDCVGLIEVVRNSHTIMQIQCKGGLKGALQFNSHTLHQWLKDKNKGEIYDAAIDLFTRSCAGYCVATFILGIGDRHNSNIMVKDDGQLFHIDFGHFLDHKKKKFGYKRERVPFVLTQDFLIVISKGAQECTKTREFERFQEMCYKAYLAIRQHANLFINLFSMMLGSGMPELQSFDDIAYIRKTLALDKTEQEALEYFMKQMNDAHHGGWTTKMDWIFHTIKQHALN
Sequence of Serine/threonine-protein kinase AKT (Homo sapiens) (P31749 whole entry, looked up): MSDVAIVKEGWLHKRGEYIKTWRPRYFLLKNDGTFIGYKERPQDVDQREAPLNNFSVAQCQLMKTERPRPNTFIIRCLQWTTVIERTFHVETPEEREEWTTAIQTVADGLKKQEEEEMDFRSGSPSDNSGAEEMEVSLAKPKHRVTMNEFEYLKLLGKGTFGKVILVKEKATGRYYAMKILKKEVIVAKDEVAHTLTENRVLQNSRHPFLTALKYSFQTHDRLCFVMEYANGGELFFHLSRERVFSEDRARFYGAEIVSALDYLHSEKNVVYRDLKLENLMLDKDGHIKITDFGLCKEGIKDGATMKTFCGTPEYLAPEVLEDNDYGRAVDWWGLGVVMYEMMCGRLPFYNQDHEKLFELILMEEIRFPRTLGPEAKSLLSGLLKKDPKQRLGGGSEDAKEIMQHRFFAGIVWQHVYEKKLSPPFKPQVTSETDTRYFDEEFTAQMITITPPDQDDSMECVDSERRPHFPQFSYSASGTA
Sequence of Serine/threonine-protein kinase AKT (Homo sapiens) (P31751 whole entry, looked up): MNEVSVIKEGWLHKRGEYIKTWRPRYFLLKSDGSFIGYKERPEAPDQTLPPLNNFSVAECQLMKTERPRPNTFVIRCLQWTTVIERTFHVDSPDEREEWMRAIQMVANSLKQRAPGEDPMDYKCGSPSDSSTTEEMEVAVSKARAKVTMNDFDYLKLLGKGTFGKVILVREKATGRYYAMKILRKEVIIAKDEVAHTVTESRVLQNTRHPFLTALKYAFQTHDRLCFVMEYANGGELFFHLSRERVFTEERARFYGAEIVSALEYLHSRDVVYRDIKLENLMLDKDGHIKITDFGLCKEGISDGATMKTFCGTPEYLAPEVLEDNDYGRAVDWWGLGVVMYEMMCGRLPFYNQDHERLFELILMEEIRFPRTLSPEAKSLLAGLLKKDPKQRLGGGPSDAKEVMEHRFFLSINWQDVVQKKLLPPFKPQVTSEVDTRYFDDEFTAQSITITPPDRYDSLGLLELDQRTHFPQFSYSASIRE
Sequence of Serine/threonine-protein kinase AKT (Homo sapiens) (Q9Y243 whole entry, looked up): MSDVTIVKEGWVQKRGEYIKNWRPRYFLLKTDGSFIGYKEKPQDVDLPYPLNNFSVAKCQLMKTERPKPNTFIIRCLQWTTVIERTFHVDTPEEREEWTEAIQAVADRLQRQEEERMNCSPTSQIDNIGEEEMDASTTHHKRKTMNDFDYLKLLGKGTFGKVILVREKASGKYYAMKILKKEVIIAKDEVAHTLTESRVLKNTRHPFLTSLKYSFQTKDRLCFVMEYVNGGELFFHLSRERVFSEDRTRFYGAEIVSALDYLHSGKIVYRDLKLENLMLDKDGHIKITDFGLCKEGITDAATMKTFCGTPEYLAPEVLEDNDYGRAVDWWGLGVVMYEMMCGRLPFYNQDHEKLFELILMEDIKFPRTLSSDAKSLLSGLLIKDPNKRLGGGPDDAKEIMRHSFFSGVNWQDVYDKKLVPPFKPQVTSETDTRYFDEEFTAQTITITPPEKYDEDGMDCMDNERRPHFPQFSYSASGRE

Regarding `Nc1ccc(-c2cnc(N)c(N)c2)cn1`, the IC50 in assay [1] was over 50000 nM.
The molecule `Nc1ccc(-c2cnc(Cl)c(F)c2)cn1` had an IC50 in assay [1] of over 50000 nM.
Still for that read-out and setting: under `Cc1ncc(-c2ccc(N)nc2)cc1N` stands over 50000 nM; under `Cc1ccc(S(=O)(=O)Nc2cc(-c3ccc(N)nc3)cnc2Cl)cc1`, 41 nM.
Turning to `N#Cc1cc(-c2ccc(N)nc2)cnc1Cl`, the IC50 in assay [1] is over 50000 nM.
With `COc1ncc(-c2ccc(N)nc2)cc1N`, in [1], the IC50 was over 50000 nM.
The same measure, in the same setting: under `Nc1ccc(-c2ccc(Cl)nc2)cn1` stands 47500 nM; under `CC(C)(C)c1ccc(S(=O)(=O)Nc2cc(-c3ccc(N)nc3)cnc2Cl)cc1`, 31 nM; under `CCCC(=O)Nc1ccc(-c2cnc(Cl)c(NS(=O)(=O)c3ccccc3)c2)cn1`, 46 nM.
In the case of `Nc1cncc(-c2ccc(N)nc2)c1`, in assay [1], the IC50 is over 50000 nM.
The same measure, in the same setting: under `CN(c1cc(-c2ccc(N)nc2)cnc1Cl)S(=O)(=O)c1ccccc1` stands 11300 nM; under `N#Cc1ncc(-c2ccc(N)nc2)cc1N`, 33500 nM.
Still for that read-out and setting: the same measure for `Nc1ccc(-c2cnc(F)c(N)c2)cn1`: over 50000 nM.
`Oc1cccc(-c2nc(N3CCOCC3)c3oc4ncccc4c3n2)c1` [PI-103]: the IC50 in [2] was 1600 nM; in assay [3] it was 88 nM; in assay [4], 58 nM; in assay [5] it was 54 nM; in [6], 89 nM.
`Nc1ccc(-c2cnc(Cl)c(NS(=O)(=O)c3ccc(F)cc3)c2)cn1`: in [1], the IC50 stood at 98 nM.
The same measure, in the same setting: under `Nc1ccc(-c2cnc(Cl)c(NS(=O)(=O)c3ccc(F)cc3F)c2)cn1` stands 67 nM; under `CC(=O)Nc1ccc(-c2cnc(Cl)c(NS(=O)(=O)c3ccccc3)c2)cn1`, 48 nM; under `CCOc1ncc(-c2ccc(N)nc2)cc1N`, over 50000 nM.
Same read-out and setting: under `Nc1ccc(-c2cnc(Cl)c(C(F)(F)F)c2)cn1` stands 46600 nM.
Still for that read-out and setting: under `CCC(=O)Nc1ccc(-c2cnc(Cl)c(NS(=O)(=O)c3ccccc3)c2)cn1` stands 49 nM.
Regarding `CC[C@H](Nc1ncnc2[nH]cnc12)c1nc2cccc(F)c2c(=O)n1-c1ccccc1` [IDELALISIB], the IC50 in assay [2] was over 50000 nM; in assay [3] it was 15200 nM; in [4], 13300 nM; in assay [5] it was 4300 nM; in assay [6], 480 nM.
In assay [1], `Nc1ccc(-c2cnc(Cl)c(N)c2)cn1` yielded an IC50 of 32500 nM.
The same measure, in the same setting: under `Nc1ccc(-c2cnc(Cl)c(NS(=O)(=O)c3ccccc3)c2)cn1` stands 52 nM.
For `COCCNC(=O)Nc1ccc(-c2cnc(Cl)c(NS(=O)(=O)c3ccccc3)c2)cn1`, the Activity was 2.65% in [7]; 11.3% in assay [8]; 3.85% in assay [9]; 1.69% in assay [12]; 0.335% in assay [15]; “Dose-Dependent Effect” in assay [16]. For the same molecule, the Activity in assay [17] was 28.1%; in assay [20] it was 0.1%; in assay [21], 10.9%; in assay [22] it was 4.18%; in [24], 1.92%; in assay [25], 3.21%. For the same molecule, the Activity in [27] was determined as 1.2%; in [30], 1.47%. Moreover, the IC50 was determined as 15900 nM in assay [2]; 243 nM in assay [10]; 18900 nM in assay [3]; 2600 nM in [4]; 295 nM in assay [13]; 30 nM in [1]. The IC50 in [5] was 3700 nM; in [6], 8700 nM; in assay [28] it was 288 nM. Also, the viability at 5 µM in assay [11] stood at 85.5%. In addition, the Ratio IC50 in assay [14], in [18] and in [23] was 8 each time. For the same molecule, in assay [19], the inhibition entry was “Dose-Dependent Effect”. Moreover, the viability at 1 µM in assay [26] was 96%. For the same molecule, in assay [29], the viability at 3 µM came out at 94%. In assay [31], the viability at 10 µM was 57.4%.
`CCNC(=O)Nc1ccc(-c2cnc(Cl)c(NS(=O)(=O)c3ccccc3)c2)cn1`: the IC50 was 180 nM in [10], 235 nM in assay [13], 104 nM in assay [1] and 412 nM in [28].
